{
  "source": "patent US10746747B2",
  "about": "“Method for quantitative characterization of substances with regard to their properties of binding to amyloid-β (Aβ) conformers” (FORSCHUNGSZENTRUM JUELICH GMBH, priority 2013, dated 2020)",
  "key": {"Aβ(1-42) oligomers": {"target": "T1, Aβ(1-42) oligomers (Homo sapiens, UniProt P05067)", "T1 construct": "oligomers and fibrils being composed of a 1:10 ratio of biotinylated Aβ(1-42) to non-biotinylated Aβ(1-42)", "T1 sequence (P05067 672-713 limits assumed)": "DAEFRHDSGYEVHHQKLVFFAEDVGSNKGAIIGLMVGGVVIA", "assay": "SPR single-cycle kinetics on immobilized Aβ(1-42) oligomers", "settings": "oligomers by density gradient centrifugation, 1356 RU immobilized, heterogeneous binding model, two sites", "method": "(§1) The results can be obtained by surface plasmon resonance or by biolayer interferometry. In the case of surface plasmon resonance, regeneration steps between individual analyte injections are circumvented by carrying out the interaction studies using the “single-cycle kinetics” measurement method. Thus, advantageously, different analyte concentrations are injected directly one after the other.\n(§2) In order to ensure a homogeneous sample preparation, monomers and oligomers were separated by means of size exclusion chromatography (SEC), and fibrils were separated from other forms by means of density gradient centrifugation. The immobilization on streptavidin-loaded SPR sensor surfaces took place by using biotinylated Aβ(1-42), oligomers and fibrils being composed of a 1:10 ratio of biotinylated Aβ(1-42) to non-biotinylated Aβ(1-42).\n(§3) The lyophilized samples of N-terminally biotinylated Aβ(1-42) and non-biotinylated Aβ(1-42) were each dissolved separately from one another in 100% hexafluoroisopropanol (HIFP) and incubated overnight at room temperature. The volumes required for a 1:10 ratio were then combined and the HFIP was evaporated off using a concentrator.\n(§4) For the preparation of monomeric and oligomeric Aβ(1-42), the previously obtained pellet was taken up in the size exclusion chromatography buffer (50 mM sodium phosphate buffer, 150 mM NaCl, 0.6% Tween 20, pH 7.4) and briefly centrifuged for 30 seconds at 15500 g in order to sediment insoluble material.\n(§5) The supernatant after the centrifugation step at the end of the preparation of monomeric and oligomeric Aβ(1-42) was then applied directly to a Superdex 75 10/300 GL (GE Healthcare) column for chromatographic separation. The flow rate during the elution with size exclusion chromatography buffer was 0.8 ml/min. Monomers eluted at ˜14 ml, whereas oligomers eluted at ˜8 ml.\n(§6) The density gradient was prepared by subsequently layering over the density gradient solution (iodixanol diluted in 10 mM sodium phosphate buffer pH 7.4) in concentrations of 50% (260 μl), 40% (260 μl), 30% (260 μl), 20% (260 μl), 10% (260 μl) and 5% (100 μl) (v/v). The samples were then pipetted onto the density gradient and centrifugation was carried out for 3 hours at 4° C. and 259000 g. A total of 14 fractions, each of 140 μl, was then removed from the density gradient from top to bottom. Monomers are found in the first fraction, oligomers are found in fractions 5 and 6, and fibrils are found typically in fractions 11-13.\n(§7) The monomers are biotinylated C-terminally, unlike the oligomers and fibrils (N-terminally). The response units (Y-axis) were plotted against the time in seconds (X-axis), wherein the black curves represent the double-referenced experimental data and the gray superposed curves represent the fits. […]"}, "Aβ(1-42) monomers": {"target": "T2, Aβ(1-42) monomers (Homo sapiens, UniProt P05067)", "T2 construct": "sensor surfaces containing immobilized Aβ(1-42) monomers, oligomers and fibrils", "T2 sequence (P05067 672-713 limits assumed)": "as above", "assay": "SPR single-cycle kinetics on immobilized Aβ(1-42) monomers", "settings": "monomers by density gradient centrifugation, 1423 RU immobilized, heterogeneous binding model, two sites", "method": "as §1, §2, §3, §4, §5, §6, §7"}, "Aβ(1-42) fibrils": {"target": "T3, Aβ(1-42) fibrils (Homo sapiens, UniProt P05067)", "T3 construct": "oligomers and fibrils being composed of a 1:10 ratio of biotinylated Aβ(1-42) to non-biotinylated Aβ(1-42)", "T3 sequence (P05067 672-713 limits assumed)": "as above", "assay": "SPR single-cycle kinetics on immobilized Aβ(1-42) fibrils", "settings": "fibrils by density gradient centrifugation, 1324 RU immobilized, binding model with three binding sites", "method": "as §1, §2, §3\nFor the preparation of fibrillar Aβ(1-42), the pellets obtained after the evaporation were dissolved in 10 mM sodium phosphate buffer pH 7.4 and incubated for 24 hours at 25° C. and at 600 rpm.\nas §6\nThe monomers are biotinylated C-terminally, unlike the oligomers and fibrils (N-terminally). The response units (Y-axis) were plotted against the time in seconds (X-axis), wherein the black curves represent the double-referenced experimental data and the gray superposed curves represent the fits. For characterizing the scFv-IC16, therefore, measurements using biotinylated Aβ(1-42) are possible; C-terminally biotinylated Aβ(1-42) was used here. For fitting to monomers, a 1:1 Langmuir binding model was used and oligomers and fibrils were fitted to a heterogeneous binding model which takes account of two different binding sites on the sensor surface. It can clearly be seen that the fits coincide very well with the experimental data. This is direct evidence of the successful immobilization of the various forms and the respectively homogeneous surface.\nThe index a1 and d1 refer respectively to the association and dissociation rate of the antibody fragment scFv-IC16 on the respective exposed epitope of the conformer. The index a2 and d2, on the other hand, refer respectively to the association and dissociation rate of the antibody fragment scFv-IC16 on discontinuous epitopes of the respective conformer. Analogously, the indices D1 and D2 refer to the dissociation constants on the continuous and discontinuous epitope.\nThe D-enantiomeric peptide D7 was identified by a mirror image […] selection and analyzed using the method described above with regard to the binding properties, by way of example as a substance to be tested. In a manner differing from the measurement data in FIG. 3, in this case, all the different Aβ(1-42) conformers (monomers, oligomers and fibrils) were prepared by means of density gradient centrifugation and immobilized in various quantities on the sensor surface. In the case of the monomers, 1423 RU were immobilized, in the case of the oligomers 1356 RU, and in the case of the fibrils 1324 RU. […]"}, "[1]": {"settings": "sub-reaction 1, read-out: ka1 association rate"}, "[2]": {"settings": "sub-reaction 1, read-out: kd1 dissociation rate"}, "[3]": {"settings": "sub-reaction 2, read-out: ka2 association rate"}, "[4]": {"settings": "sub-reaction 2, read-out: kd2 dissociation rate"}},
  "note": "Where two headings read alike, the source gives them in different places. Square brackets hold non-standard residues; d marks the D form. Peptide text beside a SMILES is read from it.",
  "data": [
    {"smiles": "CSCC[C@@H](NC(=O)[C@@H](Cc1c[nH]cn1)NC(=O)[C@@H](Cc1ccc(O)cc1)NC(=O)[C@H](NC(=O)[C@@H](Cc1ccc(O)cc1)NC(=O)[C@@H](Cc1ccc(O)cc1)NC(=O)[C@@H](CCC(=O)O)NC(=O)[C@@H](Cc1ccccc1)NC(=O)[C@@H](CCCNC(=N)N)NC(=O)[C@H](NC(=O)[C@H](N)Cc1c[nH]cn1)[C@H](C)O)C(C)C)C(=O)N[C@H](CO)C(=O)O", "note": "[D7, htrfeyyvyhms] (H-[dH][dT][dR][dF][dE][dY][dY][dV][dY][dH][dM][dS]-OH; N-terminus and C-terminus assumed)", "values": [
      {"measurement": "kon", "setting": "Aβ(1-42) oligomers; [1]", "value": 4520, "unit": "M⁻¹ s⁻¹"},
      {"measurement": "koff", "setting": "Aβ(1-42) oligomers; [2]", "value": 0.000402, "unit": "s⁻¹"},
      {"measurement": "kon", "setting": "Aβ(1-42) oligomers; [3]", "value": 66200, "unit": "M⁻¹ s⁻¹"},
      {"measurement": "koff", "setting": "Aβ(1-42) oligomers; [4]", "value": 0.0153, "unit": "s⁻¹"},
      {"measurement": "kon", "setting": "Aβ(1-42) monomers; [1]", "value": 2420, "unit": "M⁻¹ s⁻¹"},
      {"measurement": "koff", "setting": "Aβ(1-42) monomers; [2]", "value": 0.000364, "unit": "s⁻¹"},
      {"measurement": "kon", "setting": "Aβ(1-42) monomers; [3]", "value": 100000, "unit": "M⁻¹ s⁻¹"},
      {"measurement": "koff", "setting": "Aβ(1-42) monomers; [4]", "value": 0.00928, "unit": "s⁻¹"},
      {"measurement": "kon", "setting": "Aβ(1-42) fibrils; [1]", "value": 18200, "unit": "M⁻¹ s⁻¹"},
      {"measurement": "koff", "setting": "Aβ(1-42) fibrils; [2]", "value": 0.262, "unit": "s⁻¹"},
      {"measurement": "kon", "setting": "Aβ(1-42) fibrils; [3]", "value": 1320, "unit": "M⁻¹ s⁻¹"},
      {"measurement": "koff", "setting": "Aβ(1-42) fibrils; [4]", "value": 0.000193, "unit": "s⁻¹"},
      {"measurement": "kon", "setting": "Aβ(1-42) fibrils; sub-reaction 3, read-out: ka3 association rate", "value": 32300, "unit": "M⁻¹ s⁻¹"},
      {"measurement": "koff", "setting": "Aβ(1-42) fibrils; sub-reaction 3, read-out: kd3 dissociation rate", "value": 0.0125, "unit": "s⁻¹"}
    ]}
  ]
}
